According to publication PMC5945515, “Measuring glucocorticoid receptor expression in vivo with PET” (Oncotarget, 2018):

Key:
[1] = biological target: T1, rat GR (Rattus norvegicus, UniProt P06536); test: Competition binding assay on cells, rat GR; conditions: 9L cells, displacing 3H-dexamethasone; read-out: KD rtGR
T1 construct: endogenous in cells; host or cells: 9L
T1 sequence (P06536 1-795): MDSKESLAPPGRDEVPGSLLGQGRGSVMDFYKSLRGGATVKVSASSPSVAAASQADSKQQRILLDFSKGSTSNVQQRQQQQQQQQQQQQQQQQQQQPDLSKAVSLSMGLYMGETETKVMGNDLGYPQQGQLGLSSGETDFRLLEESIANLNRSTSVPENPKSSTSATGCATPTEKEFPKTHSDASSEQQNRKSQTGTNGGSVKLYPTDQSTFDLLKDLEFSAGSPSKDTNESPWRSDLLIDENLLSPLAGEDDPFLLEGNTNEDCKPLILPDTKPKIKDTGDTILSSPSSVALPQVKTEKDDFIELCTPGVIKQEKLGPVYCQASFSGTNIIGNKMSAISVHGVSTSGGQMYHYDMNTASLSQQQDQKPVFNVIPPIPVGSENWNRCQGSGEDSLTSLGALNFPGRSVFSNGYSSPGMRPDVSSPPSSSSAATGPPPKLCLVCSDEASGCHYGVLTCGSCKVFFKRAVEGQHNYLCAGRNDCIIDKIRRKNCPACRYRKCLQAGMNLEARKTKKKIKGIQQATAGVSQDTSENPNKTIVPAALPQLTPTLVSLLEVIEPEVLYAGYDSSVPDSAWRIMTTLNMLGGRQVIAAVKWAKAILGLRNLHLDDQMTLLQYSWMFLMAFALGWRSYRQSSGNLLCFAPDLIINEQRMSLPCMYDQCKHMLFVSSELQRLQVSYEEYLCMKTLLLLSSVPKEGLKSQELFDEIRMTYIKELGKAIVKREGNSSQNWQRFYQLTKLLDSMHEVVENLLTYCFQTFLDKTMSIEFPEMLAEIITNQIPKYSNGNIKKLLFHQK
Procedure: (§1) The KD for subfamily 3 group C nuclear hormone receptors was determined on cells by displacing ^3H-steroidal agonists for the respective receptor. […].
(§2) The cold ligands and ^3H-steroids were co-incubated on cells in PBS at room temperature for one hour. Following incubation, the cells were washed twice with ice cold PBS and the unbound activity was retained for analysis. The cells were lysed with 1 mL of 1 M NaOH and collected. Bound and unbound fractions were counted in a liquid scintillation counter and expressed as a percentage of the total activity added per equal relative number of cells. […]. The specific binding component was plotted against the log of the competing ligand and curve fit using a non-linear regression algorithm with PRISM software.

[2] = biological target: T2, mouse GR (Mus musculus, UniProt P06537); test: Competition binding assay on cells, mouse GR; conditions: GL261 cells, displacing 3H-dexamethasone; read-out: KD msGR
T2 construct: endogenous in cells; host or cells: GL261
T2 sequence (P06537 1-792): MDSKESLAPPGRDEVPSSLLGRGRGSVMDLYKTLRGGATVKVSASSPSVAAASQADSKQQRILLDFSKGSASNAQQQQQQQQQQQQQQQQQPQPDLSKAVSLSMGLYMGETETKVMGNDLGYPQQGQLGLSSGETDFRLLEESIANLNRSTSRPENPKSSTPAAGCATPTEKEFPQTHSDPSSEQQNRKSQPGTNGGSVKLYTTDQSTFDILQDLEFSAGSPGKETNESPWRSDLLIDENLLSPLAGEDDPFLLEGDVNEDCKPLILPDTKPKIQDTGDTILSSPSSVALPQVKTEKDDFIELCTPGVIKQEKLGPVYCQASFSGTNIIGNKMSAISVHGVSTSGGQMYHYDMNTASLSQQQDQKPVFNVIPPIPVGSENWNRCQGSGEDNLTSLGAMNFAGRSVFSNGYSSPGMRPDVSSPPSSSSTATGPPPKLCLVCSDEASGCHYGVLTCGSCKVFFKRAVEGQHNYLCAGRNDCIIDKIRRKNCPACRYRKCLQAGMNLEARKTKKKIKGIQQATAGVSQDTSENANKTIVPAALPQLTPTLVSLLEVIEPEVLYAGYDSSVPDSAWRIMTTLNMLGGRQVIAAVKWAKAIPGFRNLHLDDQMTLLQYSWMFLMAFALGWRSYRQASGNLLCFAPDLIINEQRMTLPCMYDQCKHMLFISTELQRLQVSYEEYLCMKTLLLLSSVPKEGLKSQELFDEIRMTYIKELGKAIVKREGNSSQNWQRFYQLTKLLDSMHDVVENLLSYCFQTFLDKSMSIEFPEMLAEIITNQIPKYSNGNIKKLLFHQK
Procedure: as §1, §2

Q: `C[C@]12C=CC(=O)C=C1CCC1C2[C@@H](O)C[C@@]2(C)C1CC[C@]2(O)C(=O)CNC(=O)c1ccc(F)cc1` (some centres unmarked) [GR02] was tested. Which Kd [1] did it give?
A: Its Kd is 6.18 nM.

Q: And the Kd [2]?
A: Its Kd is 6.71 nM.
